Measurements as given in patent US20220040304A1, “A COMPOSITION FOR CANCER CELL DEATH AND ITS USE” (Industry-University Cooperation Foundation Hanyang …, priority 2018, published 2022).

Columns and labels:
Format in all cases: cell-based, human
[1] = tested on: MCF-7 cells; assay: MTT colorimetric change and cell viability after light irradiation; conditions: MCF-7, protein 10 μM 24 hours, light 10 mW/cm^2, no Co-h
Description: MCF-7 cells were seeded at 5×10^5 cells/mL in a 96-well plate (SPL Cell Culture Plate, 96 well (SPL, Cat #30096)), and cultured at 37° C. for 24 hours (overnight). After the overnight culture, the cells were washed with FBS & Phenol red-free media (RPMI, Well Gene., Korea, Cat #LM011-02), and 100 μL of an FBS-free medium containing the purified protein (final concentration: 10 μM) was added, followed by reaction at 37° C. for 24 hours. After the reaction for 24 hours, the cells were washed with FBS & Phenol red-free media (RPMI), and then 100 μL of FBS & Phenol red-free media (RPMI) was added again. After light irradiation at 10 mW/cm^2 over time, the cells were washed with FBS & Phenol red-free media (RPMI), and 100 μL of FBS & Phenol red-free media (RPMI) was added again. 10 μL of 3-(4,5-dimethylthiazol-2-yl)-2,5-diphenyltetrazolium bromide (MTT; Cell Biolabs Inc., USA; final concentration: 1×) was added, followed by reaction at 37° C. for 4 hours. 100 μL of a supernatant was removed, and 100 μL of DMSO (Sigma-Aldrich., USA) was added, followed by reaction for 10 minutes. The colorimetric change of MTT according to a protein type treated to the cells and light irradiation time was confirmed, and then cell viability was confirmed by measuring the absorbance intensity at 570 nm using a plate reader.

[2] = tested on: MCF-7 cells; assay: MTT colorimetric change and cell viability after reaction with Co-h substrate; conditions: MCF-7, protein 10 μM 24 hours, Co-h 150 μM, without light irradiation
Description: MCF-7 cells were seeded at 5×10^5 cells/mL in a 96-well plate (SPL Cell Culture Plate, 96 well (SPL, Cat #30096)), and cultured at 37° C. for 24 hours (overnight).
(§1) After the culture for 24 hours, the cells were washed with FBS & Phenol red-free media (RPMI), and 100 μL of an FBS-free medium containing the purified protein (final concentration: 10 μM) was added, followed by reaction at 37° C. for 24 hours.
After the reaction for 24 hours, the cells were washed with FBS & Phenol red-free media (RPMI), and then 100 μL of FBS & Phenol red-free media (RPMI) containing a Co-h substrate solution (final concentration: 150 μM) was added. The cells were washed with FBS & Phenol red-free media (RPMI), and 100 μL of fresh FBS & Phenol red-free media (RPMI) were then added.
10 μL of 3-(4,5-dimethylthiazol-2-yl)-2,5-diphenyltetrazolium bromide (MTT) (final concentration: 1×) was added, followed by reaction at 37° C. for 4 hours. After 100 μL of a supernatant was removed, 100 μL of DMSO was added, followed by reaction for 10 minutes. The colorimetric change of MTT according to a protein type treated to the cells and the light irradiation time was checked, and then cell viability was confirmed by measuring the absorbance intensity at 570 nm using a plate reader. […]

[3] = tested on: MCF-7 cells; assay: Cell death by SYTOX Green or EthD-1 and DAPI fluorescence (light irradiation or Co-h); conditions: MCF-7, protein 10 μM 24 hours; light 10 mW/cm^2 or Co-h 150 μM over time
Description: as §1, with “MCF-7 cells were seeded at 5×10^5 cells/mL in a 96-well plate (SPL Cell Culture Plate, 96 well (SPL, Cat #30096)), and cultured at 37° C. for 24 hours (overnight). After” for “After”
After the reaction for 24 hours, the cells were washed with FBS & Phenol red-free media (RPMI), and then 100 μL of FBS & Phenol red-free media (RPMI) was then added.
After the reaction, 8.1 μL of FMN (final concentration: 150 μM) was added. […]
SYTOX Green or EthD-1 and DAPI fluorescence images were observed using a confocal microscope according to a protein type treated to cells and i) light irradiation time or ii) reaction time with a Co-h substrate, and cell death was confirmed by measuring relative fluorescence intensity at an excitation wavelength of 504 nm and an emission wavelength of 523 nm of SYTOX Green, and an excitation wavelength of 525 nm and an emission wavelength of 590 nm of EthD-1 using a plate reader.
Whether or not Cell death was observed by fluorescence microscopy using SYTOX Green (dead cell-specific dye, green) or EthD-1 (dead cell-specific dye, red) and DAPI (live cell-specific dye, blue).

Substance | cell viability / colorimetric change of MTT with light irradiation time [1] | cell viability / colorimetric change of MTT with reaction time with Co-h [2] | cell death by staining (SYTOX Green or EthD-1 dead cells, DAPI live cells) [3]
RLuc8-MS: fusion protein of RLuc8 and MiniSOG without lead peptide, 53 kDa | alive | the staining becomes pink | stained with DAPI
MS: first protein MiniSOG, ROS-generating protein (singlet oxygen), expressed from pRSET-MiniSOG, 13 kDa [reference compound] | alive | the staining becomes pink | stained with DAPI
